Values after ≈ are worked out from the molar mass of the structure shown.
Assays:
[1] = tested on: A/New Caledonia/20/99 BVLV008 (H1N1); experiment: Plaque reduction assay (PRA) in MDCK cells; type: cell-based, influenza virus; conditions: Influenza A virus, H1N1, MDCK, plaque numbers reduced by 50%, read-out: EC50 ng/ml PRA A/New
[2] = tested on: A/Panama/2007/99 BVLV008 (H3N2); experiment: Plaque reduction assay (PRA) in MDCK cells; type: cell-based, influenza virus; conditions: Influenza A virus, H3N2, MDCK, plaque numbers reduced by 50%, read-out: EC50 ng/ml PRA A/Pan
[3] = tested on: B/Yamanashi/166/98 BVLV007; experiment: Plaque reduction assay (PRA) in MDCK cells; type: cell-based, influenza virus; conditions: unidentified influenza virus, MDCK, read-out: EC50 ng/ml PRA B/Yam, B/Yamanashi/166/98 BVLV007; plaque numbers reduced by 50%
[4] = tested on: A/Victoria/3/75 BVLV017 (H3N2); experiment: Plaque reduction assay (PRA) in MDCK cells; type: cell-based, influenza virus; conditions: Influenza A virus, H3N2, MDCK, plaque numbers reduced by 50%, read-out: EC50 ng/ml PRA A/Vic
B/Hong Kong/5/72 BVLV012 = experiment: Plaque reduction assay (PRA) in MDCK cells; type: cell-based, influenza virus; conditions: MDCK, read-out: EC50 ng/ml PRA B/HongK
[5] = tested on: Pseudomonas aeuruginosa ATCC 27853; experiment: Kirby-Bauer disk test, zones of inhibition; type: cell-based; conditions: 30 μg/disk; for zone of inhibition at 30 µg/disc: Pseudomonas, ATCC27853, read-out: diameter of zone of inhibition, Pseudomonas aeuruginosa ATCC 27853
Description: (§1) Antibiotic activities were determined using a standard Kirby-Bauer* test and are reported as diameters (in mm) of zones of inhibition for test strains. All compounds were spotted at 30 μg/disk.

[6] = tested on: Escherichia coli ATTCC 25922; experiment: Kirby-Bauer disk test, zones of inhibition; type: cell-based; conditions: 30 μg/disk; for zone of inhibition at 30 µg/disc: Escherichia coli, ATTCC25922, read-out: diameter of zone of inhibition, Escherichia coli ATTCC 25922
Description: as §1

[7] = tested on: Staphylococcus aureus ATCC 29213; experiment: Kirby-Bauer disk test, zones of inhibition; type: cell-based; conditions: 30 μg/disk; for zone of inhibition at 30 µg/disc: Staphylococcus aureus, ATCC29213, read-out: diameter of zone of inhibition, Staphylococcus aureus ATCC 29213
Description: as §1

[8] = tested on: Enterococcus faecalis ATCC 29212; experiment: Kirby-Bauer disk test, zones of inhibition; type: cell-based; conditions: 30 μg/disk; for zone of inhibition at 30 µg/disc: Enterococcus faecalis, ATCC29212, read-out: diameter of zone of inhibition, Enterococcus faecalis ATCC 29212
Description: as §1

[9] = in vivo
Description: Rodents were anaesthetised with Ketamine/Domitor mixture according to standard procedures and dosed with compound of interest by the intra-nasal route at a dose volume of approximately 3.0 ml/kg. The rodent is held in the vertical position during dosing of 30 μL per nostril. At different time points, for example, 2, 8, 24, 48 and 168 hours post-dose, levels of compound in the lung tissue are assessed by analytical methods. Any analytical method suitable for detection of this type of compound may be used. The time at which levels of compound fall below the sensitivity of the analytical techniques identified will determine the residency time of the compound in lung tissue.

Row | Compound | zone of inhibition at 30 µg/disc [5] [mm] | zone of inhibition at 30 µg/disc [6] [mm] | zone of inhibition at 30 µg/disc [7] [mm] | zone of inhibition at 30 µg/disc [8] [mm] | also measured
1 | NC12CC3CC(CC(C3)C1)C2 [Amantadine] | – | – | – | – | EC50 [1]: 11 ng/mL (≈ 0.0727 µM); EC50 [2]: 157 ng/mL (≈ 1.04 µM); EC50 [3]: 2060 ng/mL (≈ 13.6 µM); EC50 [4]: 220 ng/mL (≈ 1.45 µM); EC50 (B/Hong Kong/5/72 BVLV012): > 10000 ng/mL
2 | NCC[C@H](O)C(=O)N[C@@H]1C[C@H](N)[C@@H](O[C@H]2O[C@H](CN)[C@@H](O)[C@H](O)[C@H]2O)[C@H](O)[C@H]1O[C@H]1O[C@H](CO)[C@@H](O)[C@H](N)[C@H]1O [Amikacin, reference compound] | 18.4 | 18.5 | 18.2 | 6.7 | –
3 | NCC1OC(OC2C(N)CC(N)C(OC3OC(COC(=O)NCCCCCCCCCCCCNC(=O)OCC4OC(OC5C(N)CC(N)C(OC6OC(CN)C(O)CC6N)C5O)C(O)C(N)C4O)C(O)C(N)C3O)C2O)C(N)CC1O (centres unmarked) [Compound 1] | 6.3 | 7 | 8.9 | 6 | –
4 | NCC1OC(OC2C(N)CC(N)C(OC3OC(CN)C(O)C(N)C3O)C2O)C(N)CC1O (centres unmarked) [Compound 2] | 12.8 | 6.3 | 18.2 | 6.3 | –
5 | NCC1OC(OC2C(N)CC(N)C(OC3OC(COC(=O)Nc4ccc(Cc5ccc(NC(=O)OCC6OC(OC7C(N)CC(N)C(OC8OC(CN)C(O)CC8N)C7O)C(O)C(N)C6O)cc5)cc4)C(O)C(N)C3O)C2O)C(N)CC1O (centres unmarked) [Compound 4] | 9.2 | 7.9 | 9.3 | 6 | –
6 | NCC1OC(OC2C(N)CC(N)C(OC3OC(CN4CCNCC4)C(O)C(N)C3O)C2O)C(N)CC1O (centres unmarked) [Compound 5] | 13.8 | 10.5 | 18.6 | 7.4 | nmole retained per gram of mouse lung after 7 days [9]: 0.8 nmole per gram
7 | NCC1OC(OC2C(N)CC(N)C(OC3OC(CN4CCN(C(=O)CCCCCCCCCCCCCC(=O)N5CCCN(CC6OC(OC7C(N)CC(N)C(OC8OC(CN)C(O)CC8N)C7O)C(O)C(N)C6O)C5)CC4)C(O)C(N)C3O)C2O)C(N)CC1O (centres unmarked) [Compound 7] | 8.9 | 6.5 | – | 6.2 | –
8 | NCC1OC(OC2C(N)CC(N)C(OC3OC(CN4CCN(C(=O)c5ccccc5-c5ccccc5C(=O)N5CCN(CC6OC(OC7C(N)CC(N)C(OC8OC(CN)C(O)CC8N)C7O)C(O)C(N)C6O)CC5)CC4)C(O)C(N)C3O)C2O)C(N)CC1O (centres unmarked) [Compound 8] | 12.1 | 11.4 | – | 6.2 | nmole retained per gram of mouse lung after 7 days [9]: 4.6 nmole per gram
9 | NCC1OC(OC2C(N)CC(N)C(OC3OC(CNC(=O)Nc4ccc(Cc5ccc(NC(=O)NCC6OC(OC7C(N)CC(N)C(OC8OC(CN)C(O)CC8N)C7O)C(O)C(N)C6O)cc5)cc4)C(O)C(N)C3O)C2O)C(N)CC1O (centres unmarked) [Compound 13] | 8.9 | 7.1 | 8.6 | 6.5 | –
10 | NCC1OC(OC2C(N)CC(N)C(OC3OC(CN4CCN(C(=O)Nc5ccc(Cc6ccc(NC(=O)N7CCN(CC8OC(OC9C(N)CC(N)C(OC%10OC(CN)C(O)CC%10N)C9O)C(O)C(N)C8O)CC7)cc6)cc5)CC4)C(O)C(N)C3O)C2O)C(N)CC1O (centres unmarked) [Compound 15] | 9 | 7.7 | – | 6.2 | –
11 | Cc1cc(C)c(NC(=O)N2CCN(CC3OC(OC4C(N)CC(N)C(OC5OC(CN)C(O)CC5N)C4O)C(O)C(N)C3O)CC2)c(C)c1NC(=O)N1CCN(CC2OC(OC3C(N)CC(N)C(OC4OC(CN)C(O)CC4N)C3O)C(O)C(N)C2O)CC1 (centres unmarked) [Compound 16] | 10.1 | 6.5 | – | 6.2 | nmole retained per gram of mouse lung after 7 days [9]: 2.8 nmole per gram
12 | NCC1OC(OC2C(N)CC(N)C(OC3OC(CN4CCN(Cc5cccc(CN6CCN(CC7OC(OC8C(N)CC(N)C(OC9OC(CN)C(O)CC9N)C8O)C(O)C(N)C7O)CC6)c5)CC4)C(O)C(N)C3O)C2O)C(N)CC1O (centres unmarked) [Compound 17] | 8.5 | 6.5 | – | 6.2 | –
13 | NC1CC(O)C(CNC(=O)NCCCCCCCCCCCCNC(=O)NCC2OC(OC3C(N)CC(N)C(OC4OC(CO)C(O)C(N)C4O)C3O)C(N)CC2O)OC1OC1C(N)CC(N)C(OC2OC(CO)C(O)C(N)C2O)C1O (centres unmarked) [Compound 18] | 10.4 | 7.6 | – | 6.2 | nmole retained per gram of mouse lung after 7 days [9]: 6.6 nmole per gram
14 | NCC1OC(OC2C(N)CC(N)C(OC3OC(CN4CCN(C(=O)Nc5ccc(NC(=O)N6CCN(CC7OC(OC8C(N)CC(N)C(OC9OC(CN)C(O)CC9N)C8O)C(O)C(N)C7O)CC6)cc5)CC4)C(O)C(N)C3O)C2O)C(N)CC1O (centres unmarked) [Compound 19] | 12.8 | 12.1 | – | 6.2 | –
15 | NCC1OC(OC2C(N)CC(N)C(OC3OC(CN4CCN(CCCCCCCCCCCCN5CCN(CC6OC(OC7C(N)CC(N)C(OC8OC(CN)C(O)CC8N)C7O)C(O)C(N)C6O)CC5)CC4)C(O)C(N)C3O)C2O)C(N)CC1O (centres unmarked) [Compound 20] | 7.5 | 7.8 | – | 6.2 | –
16 | NCC1OC(OC2C(N)CC(N)C(OC3OC(CNCCCCNC(=O)Nc4ccc(Cc5ccc(NC(=O)NCCCCNCC6OC(OC7C(N)CC(N)C(OC8OC(CN)C(O)CC8N)C7O)C(O)C(N)C6O)cc5)cc4)C(O)C(N)C3O)C2O)C(N)CC1O (centres unmarked) [Compound 22] | 6 | – | – | – | –
17 | NCC1OC(OC2C(N)CC(N)C(OC3OC(CN4CCN(C(=O)CCC(=O)N5CCN(CC6OC(OC7C(N)CC(N)C(OC8OC(CN)C(O)CC8N)C7O)C(O)C(N)C6O)CC5)CC4)C(O)C(N)C3O)C2O)C(N)CC1O (centres unmarked) [Compound 25] | 6 | – | – | – | –
18 | NC[C@H]1O[C@H](O[C@H]2[C@H](O)[C@@H](O[C@H]3O[C@H](CO)[C@@H](O)[C@H](N)[C@H]3O)[C@H](N)C[C@@H]2N)[C@H](O)[C@@H](O)[C@@H]1O [Kanamycin A, reference compound] | – | – | – | – | diameter of zone of inhibition, Pseudomonas aeuruginosa ATCC 27853 [5]: 6.2 mm; diameter of zone of inhibition, Escherichia coli ATTCC 25922 [6]: 18.2 mm; diameter of zone of inhibition, Staphylococcus aureus ATCC 29213 [7]: 19.1 mm; diameter of zone of inhibition, Enterococcus faecalis ATCC 29212 [8]: 6.7 mm
19 | CCOC(=O)C1=C[C@@H](OC(CC)CC)[C@H](NC(C)=O)[C@@H](N)C1 [Oseltamivir] | – | – | – | – | EC50 [1]: 0.23 ng/mL (≈ 0.000736 µM); EC50 [2]: 0.3 ng/mL (≈ 0.00096 µM); EC50 [3]: 0.7 ng/mL (≈ 0.00224 µM); EC50 [4]: 0.11 ng/mL (≈ 0.000352 µM); EC50 (B/Hong Kong/5/72 BVLV012): 32 ng/mL (≈ 0.102 µM)
20 | NC[C@H]1O[C@H](O[C@H]2[C@H](O)[C@@H](O[C@H]3O[C@H](CO)[C@@H](O)[C@H](N)[C@H]3O)[C@H](N)C[C@@H]2N)[C@H](N)C[C@@H]1O [Tobramycin, reference compound] | 24.9 | 18.4 | 26.7 | 15.7 | nmole retained per gram of mouse lung after 7 days [9]: 2.1 nmole per gram
21 | Neomycin [reference compound] | – | – | – | – | diameter of zone of inhibition, Pseudomonas aeuruginosa ATCC 27853 [5]: 7.1 mm; diameter of zone of inhibition, Escherichia coli ATTCC 25922 [6]: 14.4 mm; diameter of zone of inhibition, Staphylococcus aureus ATCC 29213 [7]: 16.8 mm; diameter of zone of inhibition, Enterococcus faecalis ATCC 29212 [8]: 6.7 mm

— patent publication US20050085413A1, “Dimeric pharmaceutical compounds and their use” (priority 2001, published 2005)
